Test results as given in PMC11956017, “Design of Benzyl-triazolopyrimidine-Based NADPH Oxidase Inhibitors Leads to the Discovery of a Potent Dual Covalent NOX2/MAOB Inhibitor” (Journal of Medicinal Chemistry, 2025).
Entries after “also recorded” stand apart in the source; their conditions may differ.

How the values were obtained:
[1] = target: T1, human NOX5 (Homo sapiens, UniProt Q96PH1); assay: Human NOX5 isolated membranes, Amplex Red/horseradish peroxidase coupled assay; format: biochemical; settings: membrane-embedded, 40 μM NADPH; for IC50: read-out: IC50 on human NOXs, NOX5 (AMPLEX RED)
T1 construct: expressed in transfected cells; host or cells: HEK293 F cells, transient transfection (pEG BacMam vector); isolated membranes
T1 sequence (Q96PH1 1-719 isoform Q96PH1-4): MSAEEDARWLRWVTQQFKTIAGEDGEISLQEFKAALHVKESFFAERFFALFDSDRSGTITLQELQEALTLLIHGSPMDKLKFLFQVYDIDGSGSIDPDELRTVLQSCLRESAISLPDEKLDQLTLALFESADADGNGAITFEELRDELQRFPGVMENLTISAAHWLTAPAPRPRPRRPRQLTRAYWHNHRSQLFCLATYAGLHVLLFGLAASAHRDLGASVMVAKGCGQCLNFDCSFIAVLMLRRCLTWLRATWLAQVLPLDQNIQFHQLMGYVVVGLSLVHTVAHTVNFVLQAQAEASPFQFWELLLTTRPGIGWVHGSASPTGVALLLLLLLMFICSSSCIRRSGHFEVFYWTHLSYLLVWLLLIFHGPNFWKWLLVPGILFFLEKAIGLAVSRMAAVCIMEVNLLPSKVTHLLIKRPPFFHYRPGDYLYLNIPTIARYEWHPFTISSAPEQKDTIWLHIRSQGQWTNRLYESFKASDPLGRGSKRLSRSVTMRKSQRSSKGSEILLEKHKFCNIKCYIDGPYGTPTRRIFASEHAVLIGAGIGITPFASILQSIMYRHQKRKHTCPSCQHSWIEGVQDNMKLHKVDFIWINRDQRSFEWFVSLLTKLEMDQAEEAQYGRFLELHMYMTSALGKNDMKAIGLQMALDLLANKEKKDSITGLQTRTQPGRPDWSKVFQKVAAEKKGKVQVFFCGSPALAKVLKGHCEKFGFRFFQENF
Experimental: Activity assays for IC50 determinations were performed as previously described[40],[42] with modifications for covalent inhibitors. […] The estimated final protein concentrations based on the heme’s absorbance (ε414 nm = 131,000 M^–1 cm^–1) were 10–20 nM. Compounds were incubated for 1 h at 25 °C at varying concentrations, and reactions were initiated with 40 μM NADPH. Fluorescence was measured using a ClarioStar plate reader (excitation 572 nm/emission 583 nm).

[2] = target: NOX2 (Homo sapiens, UniProt P04839); assay: In cellulo NOX2 activity in NOX2-overexpressing PLB-985 cells, cytochrome c reduction; format: cell-based; parameters: NOX2 was expressed as native protein in X-CGD PLB-985 cells transduced with the RD114 pseudotyped MFGS-NOX2 vector; expressed in transfected cells; host or cells: X-CGD PLB-985 cells transduced with MFGS-NOX2 vector; settings: for IC50: intact PMA-stimulated cells, cytochrome c 200 μM
Experimental: Measurement of human NOX2 activity in cells was performed by a cytochrome c (200 μM) reduction assay. Superoxide production of intact PLB-985 cells (3 × 10^5 cells) was measured after PMA stimulation (5 μM) as reported.[40],[42] The compounds (0.04–40 μM) were added to the prestimulated cells and incubated for 1 h at 37 °C and 5% CO2, 120 rpm (New Brunswick S41i incubator shaker, Eppendorf). The absorbance at 550 nm was followed at 37 °C over a time course of 20 min in a ClarioStar plate reader (BMG Labtech).

[3] = target: T2, human myoglobin (Homo sapiens, UniProt P02144); assay: Native mass spectrometry of myoglobin reactivity; format: binding; settings: myoglobin 1 µM, compound 5 µM and 20 µM, pH 7.5, 30 minutes
T2 construct: purchased Sigma Aldrich M6036; host or cells: human cardiac
T2 sequence (P02144 1-154): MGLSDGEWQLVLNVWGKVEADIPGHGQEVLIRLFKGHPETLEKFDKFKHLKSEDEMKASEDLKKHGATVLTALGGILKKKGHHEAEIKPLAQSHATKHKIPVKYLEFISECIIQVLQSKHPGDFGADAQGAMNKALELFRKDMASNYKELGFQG
Experimental: Protein samples were buffer-exchanged into 200 mM ammonium acetate (pH 7.5) through dialysis prior to native MS analyses. These samples were directly introduced into the mass spectrometer using gold-coated capillary needles prepared in-house.[63] Data were collected on a Q Exactive UHMR hybrid quadrupole-Orbitrap mass spectrometer (Thermo Fisher) with positive polarity. The instrument parameters used for MS spectra collection were the following: capillary voltage, 1.2 kV; scan range from 1000 to 20,000 m/z; HCD collision energy, 0–100 V; source fragmentation, 0 V; in-source trapping, 0 V. The ion transfer optics was set as follows: injection flatapole, 5 V; interflatapole lens, 4 V; bent flatapole, 2 V; transfer multipole, 0 V. The resolution of the instrument was 17,500 at m/z = 200 (transient time of 64 ms), the nitrogen pressure in the HCD cell was maintained at approximately 4 × 10^–10 mbar, and the source temperature was kept at 100 °C. The noise level was set at 3 rather than the default value of 4.64. Calibration of the instruments was performed using 10 mg/mL solution of cesium iodide in water. Data were analyzed using Xcalibur 3.0 (Thermo Scientific), NaViA,[64] and UniDec software packages.[65]

[4] = system: BV2 cells; assay: ROS detection with CellROX Deep Red in BV2 cells; format: cell-based, murine; settings: 10 μM, LPS/IFN-γ stimulation, 48 h
Experimental: BV2 murine microglial cells were cultured in DMEM supplemented with 10% heat-inactivated FBS, 100 IU/mL penicillin G, […] streptomycin, and […] amphotericin B and grown at 37 °C in 5% CO2 and a humidified atmosphere. […] After 30 min, LPS 100 ng/mL and IFN-γ 20 ng/mL were added to the medium for an additional 48 h. After treatment, BV2 cells were incubated with a CellROX Deep Red reagent (cat. no. C10422) at 5 μM and incubated for 30 min at 37 °C as indicated by the manufacturer protocol. ROS levels were measured by a spectrofluorometer, taking as 100% the median fluorescence intensity of cells treated with the vehicle.

Sequence of NOX2 (P04839 2-570 limits assumed): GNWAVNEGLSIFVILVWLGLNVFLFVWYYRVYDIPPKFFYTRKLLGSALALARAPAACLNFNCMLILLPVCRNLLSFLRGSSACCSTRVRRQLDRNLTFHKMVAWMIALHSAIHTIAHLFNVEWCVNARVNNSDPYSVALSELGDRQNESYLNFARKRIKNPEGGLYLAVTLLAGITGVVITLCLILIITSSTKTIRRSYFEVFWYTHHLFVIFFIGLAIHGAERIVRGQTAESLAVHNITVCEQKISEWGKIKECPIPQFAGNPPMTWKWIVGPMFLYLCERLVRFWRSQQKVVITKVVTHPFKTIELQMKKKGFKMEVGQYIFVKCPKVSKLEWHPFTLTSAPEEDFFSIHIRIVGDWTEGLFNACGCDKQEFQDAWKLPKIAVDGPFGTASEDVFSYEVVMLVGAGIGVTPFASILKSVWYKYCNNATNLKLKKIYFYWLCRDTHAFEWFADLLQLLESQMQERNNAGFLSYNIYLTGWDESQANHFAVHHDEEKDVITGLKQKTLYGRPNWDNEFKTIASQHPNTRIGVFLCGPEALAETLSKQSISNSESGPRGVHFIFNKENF
Sequence of NOX2 (P13498 2-195 partner limits assumed): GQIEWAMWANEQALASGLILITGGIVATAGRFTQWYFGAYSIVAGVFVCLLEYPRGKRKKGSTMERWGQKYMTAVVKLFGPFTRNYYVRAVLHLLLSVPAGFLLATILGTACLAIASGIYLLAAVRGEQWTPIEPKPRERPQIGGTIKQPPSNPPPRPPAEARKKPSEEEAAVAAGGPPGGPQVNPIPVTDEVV
Sequence of NOX2 (P19878 whole entry partner): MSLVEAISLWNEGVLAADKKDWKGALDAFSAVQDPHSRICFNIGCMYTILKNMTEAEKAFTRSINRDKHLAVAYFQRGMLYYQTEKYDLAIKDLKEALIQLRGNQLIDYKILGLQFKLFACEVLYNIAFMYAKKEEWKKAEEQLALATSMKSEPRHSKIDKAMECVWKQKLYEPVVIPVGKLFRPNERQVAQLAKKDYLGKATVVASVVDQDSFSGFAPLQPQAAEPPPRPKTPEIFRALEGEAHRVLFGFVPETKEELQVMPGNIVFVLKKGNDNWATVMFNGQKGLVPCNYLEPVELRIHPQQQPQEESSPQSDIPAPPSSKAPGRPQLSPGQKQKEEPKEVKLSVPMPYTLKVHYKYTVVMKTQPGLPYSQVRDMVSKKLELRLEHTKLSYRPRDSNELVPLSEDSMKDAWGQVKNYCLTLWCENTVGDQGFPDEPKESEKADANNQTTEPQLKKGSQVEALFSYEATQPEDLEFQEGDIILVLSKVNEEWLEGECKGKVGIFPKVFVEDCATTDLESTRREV
Sequence of NOX2 (P14598 whole entry partner): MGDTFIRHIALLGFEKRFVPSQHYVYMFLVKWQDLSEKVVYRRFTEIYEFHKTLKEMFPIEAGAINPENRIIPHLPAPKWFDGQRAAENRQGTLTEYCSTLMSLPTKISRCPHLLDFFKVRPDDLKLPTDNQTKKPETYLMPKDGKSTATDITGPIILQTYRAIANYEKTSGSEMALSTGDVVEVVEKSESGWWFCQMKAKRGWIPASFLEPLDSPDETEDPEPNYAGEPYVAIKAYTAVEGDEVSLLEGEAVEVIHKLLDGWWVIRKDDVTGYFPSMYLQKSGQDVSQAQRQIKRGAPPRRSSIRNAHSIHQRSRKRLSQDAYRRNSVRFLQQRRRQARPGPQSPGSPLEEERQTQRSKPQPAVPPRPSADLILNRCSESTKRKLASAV

| IC50 on human NOXs, NOX5 (AMPLEX RED) [1] | IC50 [1] | IC50 [2] | potency against NOX2 in cellulo relative to VAS2870 (more potent) ([2]; PLB-985 cells) | Compound | adduct formation with myoglobin [3] | ROS levels in BV2 cells [4] |
| --- | --- | --- | --- | --- | --- | --- |
| inactive | > 100 µM | 17.6 ± 3.4 µM |  | C#CCNC(=O)c1ccc(Cn2nnc3c(Sc4nc5ccccc5o4)ncnc32)cc1 [Compound 8b, (4-((7-Benzo[d]oxazol-2-yl-thio)-3H-[1,2,3]triazole[4,5-d]pyrimidin-3-yl)methyl)-N-(prop-2-in-1-yl)benzamide] |  |  |
|  | 5.2 ± 0.1 µM | 0.135 ± 0.02 µM | 2 fold | C#CCN(C)Cc1ccc(Cn2nnc3c(Sc4nc5ccccc5o4)ncnc32)cc1 [Compound 9a, N-(4-((7-(Benzo[d]oxazol-2-ylthio)-3H-[1,2,3]triazolo[4,5-d]pyrimidin-3-yl)methyl)benzyl)-N-methylprop-2-yn-1-amine] | no adduct formation was detected; also recorded: did not bind | decrease the ROS levels; also recorded: strongest ROS-dumping activity |
|  | 6.5 ± 0.6 µM | 2.81 ± 0.88 µM |  | CCCNC(=O)c1ccc(Cn2nnc3c(Sc4nc5ccccc5o4)ncnc32)cc1 [Compound 8a, (4-((7-Benzo[d]oxazol-2-yl-thio)-3H-[1,2,3]triazole[4,5-d]pyrimidin-3-yl)methyl)-N-(propyl)benzamide] |  |  |
